# Patent US11993582B2, “Crystalline forms of a LTA4H inhibitor” (Novartis AG, priority 2018, dated 2024)
# Experiments:
# Type in all cases: physicochemical
# [1] = Competitive slurry experiments at different water activities
# Protocol: Competitive slurry experiments at different water activities at 25° C. and at 50° C. were performed. Competitive slurries of a (1:1) physical mixture of Modifications HB and B at different water activities were also performed.
# Hygroscopicity by DVS = assay: Hygroscopicity by DVS
# Text: Crystalline form HB is a hydrated form of (S)-3-amino-4-(5-(4-((5-chloro-3-fluoropyridin-2-yl)oxy)phenyl)-2H-tetrazol-2-yl)butanoic acid.
# [2] = Stability in solvent: equilibration of Form HB with solvent, residue analysed by XRPD; conditions: slurry experiments
# Protocol: Equilibrations with solvent were carried out to investigate the relative stability of form HB in solvent. 50 mg of Form HB is equilibrated with 1 mL solvent for 24 h (or 7 days, or 28 days) in a water bath at 25° C. or for 7 days at 50° C. The solutions are filtered and dried for 10 minutes in air. The resulting solid is analyzed by XRPD.
# Various solvent were investigated: acetone, acetonitrile, dichloromethane, dioxane, ethanol, heptane, methanol, THF, acetone/water mixtures from 10/90 to 90/10, acetonitrile/water mixtures from 10/90 to 90/10, dioxane/water mixtures from 10/90 to 90/10 and ethanol/water mixture from 10/90 to 90/10, tetrahydrofuran/water (50/50) and 1-propanol/water (70/30).
# [3] = Solubility in aqueous buffers and bio-relevant media
# [4] = Solid state stability in bulk (HPLC degradation products, XRPD)
# Protocol: The chemical and physical stability of form B and form HB was investigated, exposing the individual forms to high humidity at temperatures ranging from 25-80° C.
# The degradation products were analyzed by HPLC and the sample was analyzed by XPRD to detect any changes to the solid state.
smiles,measurement,setting,value
"N[C@@H](CC(=O)O)Cn1nnc(-c2ccc(Oc3ncc(Cl)cc3F)cc2)n1 (mixture of isomers) [Physical mixture of HB and B (1:1), (S)-3-amino-4-(5-(4-((5-chloro-3-fluoropyridin-2-yl)oxy)phenyl)-2H-tetrazol-2-yl)butanoic acid]",Solid form after competitive slurry,"[1]; 25 Degrees Celsius, Acetonitrile, aw 0.00, 2 days",Form B
same,Solid form after competitive slurry,"[1]; 25 Degrees Celsius, Acetonitrile, aw 0.00, 5 days",Form B
same,Solid form after competitive slurry,"[1]; 25 Degrees Celsius, Acetonitrile/water (83:17), aw 0.93, 2 days",Forms HB + B
same,Solid form after competitive slurry,"[1]; 25 Degrees Celsius, Acetonitrile/water (83:17), aw 0.93, 5 days",Forms HB + B
same,Solid form after competitive slurry,"[1]; 25 Degrees Celsius, Acetonitrile/water (88:12), aw 0.90, 2 days",Forms HB + B
same,Solid form after competitive slurry,"[1]; 25 Degrees Celsius, Acetonitrile/water (88:12), aw 0.90, 5 days",Forms HB + B
same,Solid form after competitive slurry,"[1]; 25 Degrees Celsius, Acetonitrile/water (92:8), aw 0.82, 2 days",Forms HB + B
same,Solid form after competitive slurry,"[1]; 25 Degrees Celsius, Acetonitrile/water (92:8), aw 0.82, 5 days",Forms HB + B
same,Solid form after competitive slurry,"[1]; 25 Degrees Celsius, Acetonitrile/water (97:3), aw 0.50, 2 days",Forms HB + B
same,Solid form after competitive slurry,"[1]; 25 Degrees Celsius, Acetonitrile/water (97:3), aw 0.50, 5 days",Form B
same,Solid form after competitive slurry,"[1]; 25 Degrees Celsius, Acetonitrile/water (98:2), aw 0.44, 2 days",Form B
same,Solid form after competitive slurry,"[1]; 25 Degrees Celsius, Acetonitrile/water (98:2), aw 0.44, 5 days",Form B
same,Solid form after competitive slurry,"[1]; 25 Degrees Celsius, Methanol, aw 0.00, 2 days",Form B
same,Solid form after competitive slurry,"[1]; 25 Degrees Celsius, Methanol, aw 0.00, 5 days",Form B
same,Solid form after competitive slurry,"[1]; 25 Degrees Celsius, Methanol/water (22:78), aw 0.90, 2 days",Forms HB + B
same,Solid form after competitive slurry,"[1]; 25 Degrees Celsius, Methanol/water (22:78), aw 0.90, 5 days",Forms HB + B
same,Solid form after competitive slurry,"[1]; 25 Degrees Celsius, Methanol/water (57:43), aw 0.70, 2 days",Forms HB + B
same,Solid form after competitive slurry,"[1]; 25 Degrees Celsius, Methanol/water (57:43), aw 0.70, 5 days",Forms HB + B
same,Solid form after competitive slurry,"[1]; 25 Degrees Celsius, Methanol/water (77:23), aw 0.50, 2 days",Form B
same,Solid form after competitive slurry,"[1]; 25 Degrees Celsius, Methanol/water (77:23), aw 0.50, 5 days",Form B
same,Solid form after competitive slurry,"[1]; 25 Degrees Celsius, Methanol/water (89:11), aw 0.30, 2 days",Form B
same,Solid form after competitive slurry,"[1]; 25 Degrees Celsius, Methanol/water (89:11), aw 0.30, 5 days",Form B
same,Solid form after competitive slurry,"[1]; 25 Degrees Celsius, Methanol/water (97:3), aw 0.11, 2 days",Form B
same,Solid form after competitive slurry,"[1]; 25 Degrees Celsius, Methanol/water (97:3), aw 0.11, 5 days",Form B
same,Solid form after competitive slurry,"[1]; 25 Degrees Celsius, Water, aw 1.00, 2 days",Forms HB + B
same,Solid form after competitive slurry,"[1]; 25 Degrees Celsius, Water, aw 1.00, 5 days",Forms HB + B
same,Water activity (aw) at which the mixture converted into pure Form B,[1]; 25° C.,≤ 0.5
same,Solid form after competitive slurry,"[1]; 25° C., water activities above aw 0.5",remained unchanged
same,Solid form after competitive slurry,"[1]; 50 degrees, Acetonitrile, aw 0.00, 2 days",Form B
same,Solid form after competitive slurry,"[1]; 50 degrees, Acetonitrile, aw 0.00, 5 days",Form B
same,Solid form after competitive slurry,"[1]; 50 degrees, Acetonitrile/water (83:17), aw 0.90, 2 days",Forms B + HB
same,Solid form after competitive slurry,"[1]; 50 degrees, Acetonitrile/water (83:17), aw 0.90, 5 days",Form B
same,Solid form after competitive slurry,"[1]; 50 degrees, Acetonitrile/water (88:12), aw 0.86, 2 days",Form B
same,Solid form after competitive slurry,"[1]; 50 degrees, Acetonitrile/water (88:12), aw 0.86, 5 days",Form B
same,Solid form after competitive slurry,"[1]; 50 degrees, Acetonitrile/water (92:8), aw 0.77, 2 days",Form B
same,Solid form after competitive slurry,"[1]; 50 degrees, Acetonitrile/water (92:8), aw 0.77, 5 days",Form B
same,Solid form after competitive slurry,"[1]; 50 degrees, Acetonitrile/water (97:3), aw 0.46, 2 days",Form B
same,Solid form after competitive slurry,"[1]; 50 degrees, Acetonitrile/water (97:3), aw 0.46, 5 days",Form B
same,Solid form after competitive slurry,"[1]; 50 degrees, Acetonitrile/water (98:2), aw 0.34, 2 days",Form B
same,Solid form after competitive slurry,"[1]; 50 degrees, Acetonitrile/water (98:2), aw 0.34, 5 days",Form B
same,Solid form after competitive slurry,"[1]; 50 degrees, Methanol, aw 0.00, 2 days",Form B
same,Solid form after competitive slurry,"[1]; 50 degrees, Methanol, aw 0.00, 5 days",Form B
same,Solid form after competitive slurry,"[1]; 50 degrees, Methanol/water (22:78), aw 0.90, 2 days",Forms HB + B
same,Solid form after competitive slurry,"[1]; 50 degrees, Methanol/water (22:78), aw 0.90, 5 days",Forms B + HB
same,Solid form after competitive slurry,"[1]; 50 degrees, Methanol/water (57:43), aw 0.71, 2 days",Form B
same,Solid form after competitive slurry,"[1]; 50 degrees, Methanol/water (57:43), aw 0.71, 5 days",Form B
same,Solid form after competitive slurry,"[1]; 50 degrees, Methanol/water (77:23), aw 0.51, 2 days",Form B
same,Solid form after competitive slurry,"[1]; 50 degrees, Methanol/water (77:23), aw 0.51, 5 days",Form B
same,Solid form after competitive slurry,"[1]; 50 degrees, Methanol/water (89:11), aw 0.31, 2 days",Form B
same,Solid form after competitive slurry,"[1]; 50 degrees, Methanol/water (89:11), aw 0.31, 5 days",Form B
same,Solid form after competitive slurry,"[1]; 50 degrees, Methanol/water (97:3), aw 0.21, 2 days",Form B
same,Solid form after competitive slurry,"[1]; 50 degrees, Methanol/water (97:3), aw 0.21, 5 days",Form B
same,Solid form after competitive slurry,"[1]; 50 degrees, Water, aw 1.00, 2 days",Forms B + HB
same,Solid form after competitive slurry,"[1]; 50 degrees, Water, aw 1.00, 5 days",Forms HB + B
same,Maximum water activity (aw) for transformation to Form B,[1]; 50° C.,≤ 0.7
"N[C@@H](CC(=O)O)Cn1nnc(-c2ccc(Oc3ncc(Cl)cc3F)cc2)n1 [Form B, (S)-3-amino-4-(5-(4-((5-chloro-3-fluoropyridin-2-yl)oxy)phenyl)-2H-tetrazol-2-yl)butanoic acid]",Maximum water uptake,Hygroscopicity by DVS; 25° C. at 90% RH by DVS,less than 0.7%
same,Hygroscopicity,Hygroscopicity by DVS; by DVS,slightly hygroscopic
same,Form conversion through slurry,[2],does not transform into other form
same,solubility,[3]; FaSSIF-V2 (pH=6.6),70 µg/mL
same,solubility,[3]; FeSSIF-V2 (pH=5.9),180 µg/mL
same,solubility,"[3]; aqueous buffers, aqueous buffer, pH values of 4 to 7",50 µg/mL
same,Hydrate formation,[4]; 1 week at 40° C./90% RH,no hydrate formation was detected
same,Stability in bulk,[4]; 1 week at 40° C./90% RH,stable
same,Chemical and physical stability in bulk,"[4]; test conditions 1-5: 1 week, tight or open container, room temperature to 80° C., up to 92% RH",displayed good stability and did not convert at all
